Laboratory results as given in patent US20230111310A1, “CARBOXYLIC ACID DERIVATIVE-SUBSTITUTED IMINO ARYL COMPOUND, PREPARATION METHOD THEREFOR, HERBICIDAL COMPOSITION AND USE THEREOF” (Qingdao Kingagroot Chemical Compound Co., Ltd., priority 2020, published 2023).

Assays:
Experiment in all cases: Weeding effect in post-emergence stage
Format in all cases: in vivo
Conditions in all cases: level of fresh weight growth control rate
[1] = system: Abutilon theophrasti
Outline: (§1)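 Compound, dissolved in acetone and diluted in water with Tween 80 plus methyl oleate EC (1.5 liter/ha), is sprayed onto 2-3 leaf potted plants. Rates span 7.5–500 g/ha. After 3 weeks of greenhouse culture, weeding effect is counted as the mean of triplicates.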

[2] = system: Alopecurus japonicus
Outline: as §1

[3] = system: Digitaria sanguinalis
Outline: as §1

[4] = system: Eleusine indica
Outline: as §1

[5] = system: Setaria viridis
Outline: as §1

[6] = system: Echinochloa crusgalli
Outline: as §1

## CC(C)=NOCCOC(=O)C(C)O/N=C/c1cc(-n2c(=O)cc(C(F)(F)F)n(C)c2=O)c(F)cc1Cl (stereo not drawn) [Compound 259]
[1]; Dose 30 g/ha
  Weeding effect in post-emergence stage, Abutilon theophrasti: 5 (Level 5: growth control rate is above 85%)
[2]; Dose 30 g/ha
  Weeding effect in post-emergence stage, Alopecurus japonicus: 5 (Level 5: growth control rate is above 85%)
[3]; Dose 30 g/ha
  Weeding effect in post-emergence stage, Digitaria sanguinalis: 5 (Level 5: growth control rate is above 85%)
[4]; Dose 30 g/ha
  Weeding effect in post-emergence stage, Eleusine indica: 5 (Level 5: growth control rate is above 85%)
[5]; Dose 30 g/ha
  Weeding effect in post-emergence stage, Setaria viridis: 5 (Level 5: growth control rate is above 85%)
[6]; Dose 30 g/ha
  Weeding effect in post-emergence stage, Echinochloa crusgalli: 5 (Level 5: growth control rate is above 85%)

## CC(O/N=C/c1cc(-n2c(=O)cc(C(F)(F)F)n(C)c2=O)c(F)cc1Cl)C(=O)Oc1ccccc1 (stereo not drawn) [Compound 262]
[1]; Dose 15 g/ha
  Weeding effect in post-emergence stage, Abutilon theophrasti: 5 (Level 5: growth control rate is above 85%)
[2]; Dose 15 g/ha
  Weeding effect in post-emergence stage, Alopecurus japonicus: 5 (Level 5: growth control rate is above 85%)
[3]; Dose 15 g/ha
  Weeding effect in post-emergence stage, Digitaria sanguinalis: 5 (Level 5: growth control rate is above 85%)
[4]; Dose 15 g/ha
  Weeding effect in post-emergence stage, Eleusine indica: 5 (Level 5: growth control rate is above 85%)
[5]; Dose 15 g/ha
  Weeding effect in post-emergence stage, Setaria viridis: 5 (Level 5: growth control rate is above 85%)
[6]; Dose 15 g/ha
  Weeding effect in post-emergence stage, Echinochloa crusgalli: 5 (Level 5: growth control rate is above 85%)

## CC(O/N=C/c1cc(-n2c(=O)cc(C(F)(F)F)n(C)c2=O)c(F)cc1Cl)C(=O)ON1C(=O)CCC1=O (stereo not drawn) [Compound 263]
[1]; Dose 60 g/ha
  Weeding effect in post-emergence stage, Abutilon theophrasti: 5 (Level 5: growth control rate is above 85%)
[2]; Dose 60 g/ha
  Weeding effect in post-emergence stage, Alopecurus japonicus: 5 (Level 5: growth control rate is above 85%)
[3]; Dose 60 g/ha
  Weeding effect in post-emergence stage, Digitaria sanguinalis: 5 (Level 5: growth control rate is above 85%)
[4]; Dose 60 g/ha
  Weeding effect in post-emergence stage, Eleusine indica: 5 (Level 5: growth control rate is above 85%)
[5]; Dose 60 g/ha
  Weeding effect in post-emergence stage, Setaria viridis: 5 (Level 5: growth control rate is above 85%)
[6]; Dose 60 g/ha
  Weeding effect in post-emergence stage, Echinochloa crusgalli: 5 (Level 5: growth control rate is above 85%)

## CC(O/N=C/c1cc(-n2c(=O)cc(C(F)(F)F)n(C)c2=O)c(F)cc1Cl)C(=O)OCC1CCCO1 (stereo not drawn) [Compound 264]
[1]; Dose 15 g/ha
  Weeding effect in post-emergence stage, Abutilon theophrasti: 5 (Level 5: growth control rate is above 85%)
[2]; Dose 15 g/ha
  Weeding effect in post-emergence stage, Alopecurus japonicus: 5 (Level 5: growth control rate is above 85%)
[3]; Dose 15 g/ha
  Weeding effect in post-emergence stage, Digitaria sanguinalis: 5 (Level 5: growth control rate is above 85%)
[4]; Dose 15 g/ha
  Weeding effect in post-emergence stage, Eleusine indica: 5 (Level 5: growth control rate is above 85%)
[5]; Dose 15 g/ha
  Weeding effect in post-emergence stage, Setaria viridis: 5 (Level 5: growth control rate is above 85%)
[6]; Dose 15 g/ha
  Weeding effect in post-emergence stage, Echinochloa crusgalli: 5 (Level 5: growth control rate is above 85%)

## CC(O/N=C/c1cc(-n2c(=O)cc(C(F)(F)F)n(C)c2=O)c(F)cc1Cl)C(=O)OCC1OCCO1 (stereo not drawn) [Compound 266]
[1]; Dose 30 g/ha
  Weeding effect in post-emergence stage, Abutilon theophrasti: 5 (Level 5: growth control rate is above 85%)
[2]; Dose 30 g/ha
  Weeding effect in post-emergence stage, Alopecurus japonicus: 5 (Level 5: growth control rate is above 85%)
[3]; Dose 30 g/ha
  Weeding effect in post-emergence stage, Digitaria sanguinalis: 5 (Level 5: growth control rate is above 85%)
[4]; Dose 30 g/ha
  Weeding effect in post-emergence stage, Eleusine indica: 5 (Level 5: growth control rate is above 85%)
[5]; Dose 30 g/ha
  Weeding effect in post-emergence stage, Setaria viridis: 5 (Level 5: growth control rate is above 85%)
[6]; Dose 30 g/ha
  Weeding effect in post-emergence stage, Echinochloa crusgalli: 5 (Level 5: growth control rate is above 85%)

## CC(O/N=C/c1cc(-n2c(=O)cc(C(F)(F)F)n(C)c2=O)c(F)cc1Cl)C(=O)OCc1cccs1 (stereo not drawn) [Compound 268]
[1]; Dose 30 g/ha
  Weeding effect in post-emergence stage, Abutilon theophrasti: 5 (Level 5: growth control rate is above 85%)
[2]; Dose 30 g/ha
  Weeding effect in post-emergence stage, Alopecurus japonicus: 5 (Level 5: growth control rate is above 85%)
[3]; Dose 30 g/ha
  Weeding effect in post-emergence stage, Digitaria sanguinalis: 5 (Level 5: growth control rate is above 85%)
[4]; Dose 30 g/ha
  Weeding effect in post-emergence stage, Eleusine indica: 5 (Level 5: growth control rate is above 85%)
[5]; Dose 30 g/ha
  Weeding effect in post-emergence stage, Setaria viridis: 5 (Level 5: growth control rate is above 85%)
[6]; Dose 30 g/ha
  Weeding effect in post-emergence stage, Echinochloa crusgalli: 5 (Level 5: growth control rate is above 85%)

## CC(O/N=C/c1cc(-n2c(=O)cc(C(F)(F)F)n(C)c2=O)c(F)cc1Cl)C(=O)OCc1ccccc1 (stereo not drawn) [Compound 283]
[1]; Dose 15 g/ha
  Weeding effect in post-emergence stage, Abutilon theophrasti: 5 (Level 5: growth control rate is above 85%)
[2]; Dose 15 g/ha
  Weeding effect in post-emergence stage, Alopecurus japonicus: 5 (Level 5: growth control rate is above 85%)
[3]; Dose 15 g/ha
  Weeding effect in post-emergence stage, Digitaria sanguinalis: 5 (Level 5: growth control rate is above 85%)
[4]; Dose 15 g/ha
  Weeding effect in post-emergence stage, Eleusine indica: 5 (Level 5: growth control rate is above 85%)
[5]; Dose 15 g/ha
  Weeding effect in post-emergence stage, Setaria viridis: 5 (Level 5: growth control rate is above 85%)
[6]; Dose 15 g/ha
  Weeding effect in post-emergence stage, Echinochloa crusgalli: 5 (Level 5: growth control rate is above 85%)

## CC(O/N=C/c1cc(-n2c(=O)cc(C(F)(F)F)n(C)c2=O)c(F)cc1Cl)C(=O)OCc1ccccc1F (stereo not drawn) [Compound 284]
[1]; Dose 15 g/ha
  Weeding effect in post-emergence stage, Abutilon theophrasti: 5 (Level 5: growth control rate is above 85%)
[2]; Dose 15 g/ha
  Weeding effect in post-emergence stage, Alopecurus japonicus: 5 (Level 5: growth control rate is above 85%)
[3]; Dose 15 g/ha
  Weeding effect in post-emergence stage, Digitaria sanguinalis: 5 (Level 5: growth control rate is above 85%)
[4]; Dose 15 g/ha
  Weeding effect in post-emergence stage, Eleusine indica: 5 (Level 5: growth control rate is above 85%)
[5]; Dose 15 g/ha
  Weeding effect in post-emergence stage, Setaria viridis: 5 (Level 5: growth control rate is above 85%)
[6]; Dose 15 g/ha
  Weeding effect in post-emergence stage, Echinochloa crusgalli: 5 (Level 5: growth control rate is above 85%)

## CC(O/N=C/c1cc(-n2c(=O)cc(C(F)(F)F)n(C)c2=O)c(F)cc1Cl)C(=O)OCc1cccc(F)c1 (stereo not drawn) [Compound 285]
[1]; Dose 30 g/ha
  Weeding effect in post-emergence stage, Abutilon theophrasti: 5 (Level 5: growth control rate is above 85%)
[2]; Dose 30 g/ha
  Weeding effect in post-emergence stage, Alopecurus japonicus: 5 (Level 5: growth control rate is above 85%)
[3]; Dose 30 g/ha
  Weeding effect in post-emergence stage, Digitaria sanguinalis: 5 (Level 5: growth control rate is above 85%)
[4]; Dose 30 g/ha
  Weeding effect in post-emergence stage, Eleusine indica: 5 (Level 5: growth control rate is above 85%)
[5]; Dose 30 g/ha
  Weeding effect in post-emergence stage, Setaria viridis: 5 (Level 5: growth control rate is above 85%)
[6]; Dose 30 g/ha
  Weeding effect in post-emergence stage, Echinochloa crusgalli: 5 (Level 5: growth control rate is above 85%)

## CC(O/N=C/c1cc(-n2c(=O)cc(C(F)(F)F)n(C)c2=O)c(F)cc1Cl)C(=O)OCc1ccc(F)cc1 (stereo not drawn) [Compound 286]
[1]; Dose 30 g/ha
  Weeding effect in post-emergence stage, Abutilon theophrasti: 5 (Level 5: growth control rate is above 85%)
[2]; Dose 30 g/ha
  Weeding effect in post-emergence stage, Alopecurus japonicus: 5 (Level 5: growth control rate is above 85%)
[3]; Dose 30 g/ha
  Weeding effect in post-emergence stage, Digitaria sanguinalis: 5 (Level 5: growth control rate is above 85%)
[4]; Dose 30 g/ha
  Weeding effect in post-emergence stage, Eleusine indica: 5 (Level 5: growth control rate is above 85%)
[5]; Dose 30 g/ha
  Weeding effect in post-emergence stage, Setaria viridis: 5 (Level 5: growth control rate is above 85%)
[6]; Dose 30 g/ha
  Weeding effect in post-emergence stage, Echinochloa crusgalli: 5 (Level 5: growth control rate is above 85%)

## CC(O/N=C/c1cc(-n2c(=O)cc(C(F)(F)F)n(C)c2=O)c(F)cc1Cl)C(=O)OCc1ccccn1 (stereo not drawn) [Compound 301]
[1]; Dose 15 g/ha
  Weeding effect in post-emergence stage, Abutilon theophrasti: 5 (Level 5: growth control rate is above 85%)
[2]; Dose 15 g/ha
  Weeding effect in post-emergence stage, Alopecurus japonicus: 5 (Level 5: growth control rate is above 85%)
[3]; Dose 15 g/ha
  Weeding effect in post-emergence stage, Digitaria sanguinalis: 5 (Level 5: growth control rate is above 85%)
[4]; Dose 15 g/ha
  Weeding effect in post-emergence stage, Eleusine indica: 5 (Level 5: growth control rate is above 85%)
[5]; Dose 15 g/ha
  Weeding effect in post-emergence stage, Setaria viridis: 5 (Level 5: growth control rate is above 85%)
[6]; Dose 15 g/ha
  Weeding effect in post-emergence stage, Echinochloa crusgalli: 5 (Level 5: growth control rate is above 85%)

## CC(O/N=C/c1cc(-n2c(=O)cc(C(F)(F)F)n(C)c2=O)c(F)cc1Cl)C(=O)OCc1cccnc1 (stereo not drawn) [Compound 302]
[1]; Dose 15 g/ha
  Weeding effect in post-emergence stage, Abutilon theophrasti: 5 (Level 5: growth control rate is above 85%)
[2]; Dose 15 g/ha
  Weeding effect in post-emergence stage, Alopecurus japonicus: 5 (Level 5: growth control rate is above 85%)
[3]; Dose 15 g/ha
  Weeding effect in post-emergence stage, Digitaria sanguinalis: 5 (Level 5: growth control rate is above 85%)
[4]; Dose 15 g/ha
  Weeding effect in post-emergence stage, Eleusine indica: 5 (Level 5: growth control rate is above 85%)
[5]; Dose 15 g/ha
  Weeding effect in post-emergence stage, Setaria viridis: 5 (Level 5: growth control rate is above 85%)
[6]; Dose 15 g/ha
  Weeding effect in post-emergence stage, Echinochloa crusgalli: 5 (Level 5: growth control rate is above 85%)

## CC(O/N=C/c1cc(-n2c(=O)cc(C(F)(F)F)n(C)c2=O)c(F)cc1Cl)C(=O)OCc1ccncc1 (stereo not drawn) [Compound 303]
[1]; Dose 15 g/ha
  Weeding effect in post-emergence stage, Abutilon theophrasti: 5 (Level 5: growth control rate is above 85%)
[2]; Dose 15 g/ha
  Weeding effect in post-emergence stage, Alopecurus japonicus: 5 (Level 5: growth control rate is above 85%)
[3]; Dose 15 g/ha
  Weeding effect in post-emergence stage, Digitaria sanguinalis: 5 (Level 5: growth control rate is above 85%)
[4]; Dose 15 g/ha
  Weeding effect in post-emergence stage, Eleusine indica: 5 (Level 5: growth control rate is above 85%)
[5]; Dose 15 g/ha
  Weeding effect in post-emergence stage, Setaria viridis: 5 (Level 5: growth control rate is above 85%)
[6]; Dose 15 g/ha
  Weeding effect in post-emergence stage, Echinochloa crusgalli: 5 (Level 5: growth control rate is above 85%)
